Test results taken from ChEMBL document CHEMBL3870328, “Synthesis of novel Ral inhibitors: An in vitro and in vivo study” (Bioorg Med Chem Lett, 2016).

What was measured:
[1] = Drug uptake in kidney of mouse xenografted with human NCI-H2122 cells at 50 mg/kg, ip after 3 hrs by LC-MS/MS analysis; format: ADME, organism-based; settings: read-out: Drug uptake
[2] = Drug metabolism in mouse xenografted with human NCI-H2122 cells assessed as M7 metabolite formation in plasma at 50 mg/kg, ip after 3 hrs by LC-MS/MS analysis; format: ADME, organism-based; settings: in vivo
[3] = Drug metabolism in mouse xenografted with human NCI-H2122 cells assessed as M6 metabolite formation in kidney at 50 mg/kg, ip after 3 hrs by LC-MS/MS analysis; format: ADME, organism-based; settings: in vivo
[4] = Drug uptake in heart of mouse xenografted with human NCI-H2122 cells at 50 mg/kg, ip after 3 hrs by LC-MS/MS analysis; format: ADME, organism-based; settings: read-out: Drug uptake
[5] = Drug metabolism in mouse xenografted with human NCI-H2122 cells assessed as M7 metabolite formation in kidney at 50 mg/kg, ip after 3 hrs by LC-MS/MS analysis; format: ADME, organism-based; settings: in vivo
[6] = Drug metabolism in mouse xenografted with human NCI-H2122 cells assessed as M7 metabolite formation in lungs at 50 mg/kg, ip after 3 hrs by LC-MS/MS analysis; format: ADME, organism-based, Lung; settings: in vivo
[7] = Drug metabolism in mouse xenografted with human NCI-H2122 cells assessed as M6 metabolite formation in liver at 50 mg/kg, ip after 3 hrs by LC-MS/MS analysis; format: ADME, organism-based; settings: in vivo
[8] = Drug metabolism in mouse xenografted with human NCI-H2122 cells assessed as M7 metabolite formation in liver at 50 mg/kg, ip after 3 hrs by LC-MS/MS analysis; format: ADME, organism-based; settings: in vivo
[9] = Drug metabolism in mouse xenografted with human NCI-H2122 cells assessed as M6 metabolite formation in plasma at 50 mg/kg, ip after 3 hrs by LC-MS/MS analysis; format: ADME, organism-based; settings: in vivo
[10] = Drug metabolism in mouse xenografted with human NCI-H2122 cells assessed as M6 metabolite formation in heart at 50 mg/kg, ip after 3 hrs by LC-MS/MS analysis; format: ADME, organism-based; settings: in vivo
[11] = Drug uptake in brain of mouse xenografted with human NCI-H2122 cells at 50 mg/kg, ip after 3 hrs by LC-MS/MS analysis; format: ADME, organism-based; settings: read-out: Drug uptake
[12] = Drug metabolism in mouse xenografted with human NCI-H2122 cells assessed as M7 metabolite formation in heart at 50 mg/kg, ip after 3 hrs by LC-MS/MS analysis; format: ADME, organism-based; settings: in vivo
[13] = Drug metabolism in mouse xenografted with human NCI-H2122 cells assessed as M7 metabolite formation in tumor at 50 mg/kg, ip after 3 hrs by LC-MS/MS analysis; format: ADME, organism-based, Neoplasm; settings: in vivo
[14] = Plasma concentration in mouse xenografted with human NCI-H2122 cells at 50 mg/kg, ip after 3 hrs by LC-MS/MS analysis; format: ADME, organism-based
[15] = Drug metabolism in CD1 mouse liver microsomes assessed as CYP450-mediated M6 metabolite formation at 16.7 uM up to 60 mins in presence of NADPH by LC-MS/MS analysis; format: ADME; settings: 1 h
[16] = Drug uptake in liver of mouse xenografted with human NCI-H2122 cells at 50 mg/kg, ip after 3 hrs by LC-MS/MS analysis; format: ADME, organism-based; settings: read-out: Drug uptake
[17] = Drug metabolism in mouse xenografted with human NCI-H2122 cells assessed as M7 metabolite formation in brain at 50 mg/kg, ip after 3 hrs by LC-MS/MS analysis; format: ADME, organism-based; settings: in vivo
[18] = Drug uptake in tumor of mouse xenografted with human NCI-H2122 cells at 50 mg/kg, ip after 3 hrs by LC-MS/MS analysis; format: ADME, organism-based, Neoplasm; settings: read-out: Drug uptake
[19] = Drug metabolism in CD1 mouse liver microsomes assessed as CYP450-mediated M7 metabolite formation at 16.7 uM up to 60 mins in presence of NADPH by LC-MS/MS analysis; format: ADME; settings: 1 h
[20] = Drug metabolism in mouse xenografted with human NCI-H2122 cells assessed as M6 metabolite formation in tumor at 50 mg/kg, ip after 3 hrs by LC-MS/MS analysis; format: ADME, organism-based, Neoplasm; settings: in vivo
[21] = Drug uptake in lungs of mouse xenografted with human NCI-H2122 cells at 50 mg/kg, ip after 3 hrs by LC-MS/MS analysis; format: ADME, organism-based; settings: lung, read-out: Drug uptake
[22] = Drug metabolism in mouse xenografted with human NCI-H2122 cells assessed as M6 metabolite formation in lungs at 50 mg/kg, ip after 3 hrs by LC-MS/MS analysis; format: ADME, organism-based, Lung; settings: in vivo
[23] = Cytotoxicity against human NCI-H2122 cells under anchorage-independent condition assessed as cell growth inhibition after 10 days by nitro blue tetrazolium-based microscopic analysis; format: functional; settings: NCI-H2122, 240 h
[24] = Drug level in CD1 mouse liver microsomes treated with 6-amino-4-(2,5-dimethoxyphenyl)-3-(naphthalen-2-yl)-1,4-dihydropyrano[2,3-c]pyrazole-5-carbonitrile at 16.7 uM assessed as CYP450-mediated compound formation in presence of NADPH by LC-MS/MS analysis; format: ADME

## CCCCC(=O)C1c2ccccc2NC2=C(C(=O)CCC2)C1c1ccccc1Cl (centres undefined)
[1]
  concentration at 3 h: 5730 ng/g
[2]
  Drug metabolism: 656.2 ng/mL
[3]
  Drug metabolism: 350.6 ng/g
[4]
  concentration at 3 h: 3540 ng/g
[5]
  Drug metabolism: 839.9 ng/g
[6]
  Drug metabolism: 487.4 ng/g
[7]
  Drug metabolism: 2531.5 ng/g
[8]
  Drug metabolism: 2822.9 ng/g
[9]
  Drug metabolism: 147.5 ng/mL
[10]
  Drug metabolism: 52.8 ng/g
[11]
  concentration at 3 h: 210 ng/g
[12]
  Drug metabolism: 472.6 ng/g
[13]
  Drug metabolism: 413 ng/g
[14]
  concentration at 3 h: 3950 ng/mL
[15]
  Drug metabolism: Metabolite_Detected
[16]
  concentration at 3 h: 11500 ng/g
[17]
  Drug metabolism: 17 ng/g
[18]
  concentration at 3 h: 4170 ng/g
[19]
  Drug metabolism: Metabolite_Detected
[20]
  Drug metabolism: 145.5 ng/g
[21]
  concentration at 3 h: 3180 ng/g
[22]
  Drug metabolism: 47.7 ng/g

## N#CC1=C(N)Oc2c(c(-c3ccccc3)nn2-c2ccccc2)C1c1ccc(F)cc1 (centres undefined)
[23]
  IC50: 4.1 µM

## COc1ccc(-c2nn(-c3ccccc3)c3c2C(c2ccccc2)C(C#N)=C(N)O3)cc1 (centres undefined)
[23]
  IC50: 7.2 µM

## Cc1nn(C)c2c1C(c1ccccc1)C(C#N)=C(N)O2 (centres undefined)
[23]
  IC50: 9.1 µM

## Cc1nn(-c2ccccc2)c2c1C(c1ccc(F)cc1)C(C#N)=C(N)O2 (centres undefined)
[23]
  IC50: 6.6 µM

## COc1ccc(-c2nn(-c3ccccc3)c3c2C(c2ccc(F)cc2)C(C#N)=C(N)O3)cc1OC (centres undefined)
[23]
  IC50: 7.6 µM

## Cc1nn(-c2ccccc2)c2c1C(c1ccccc1)C(C#N)=C(N)O2 (centres undefined)
[23]
  IC50: 2.7 µM

## COc1ccc(-c2nn(-c3ccccc3)c3c2C(c2ccc(OC)cc2)C(C#N)=C(N)O3)cc1 (centres undefined)
[23]
  IC50: 1.1 µM

## Cc1nn(C)c2c1C(c1ccc(F)cc1)C(C#N)=C(N)O2 (centres undefined)
[23]
  IC50: > 10 µM

## N#CC1=C(N)Oc2c(c(-c3ccccc3)nn2-c2ccccc2)C1c1ccccc1 (centres undefined)
[23]
  IC50: 4.1 µM

## COc1ccc(C2C(C#N)=C(N)Oc3c2c(C)nn3C)cc1 (centres undefined)
[23]
  IC50: 8.6 µM

## Cc1nn(C)c2c1C(c1ccc(C#N)cc1)C(C#N)=C(N)O2 (centres undefined)
[23]
  IC50: 5.6 µM

## Cc1nn(C)c2c1C(c1cccnc1)C(C#N)=C(N)O2 (centres undefined)
[23]
  IC50: 8.8 µM

## COc1ccc(-c2nn(C)c3c2C(c2ccc(F)cc2)C(C#N)=C(N)O3)cc1 (centres undefined)
[23]
  IC50: > 10 µM

## N#CC1=C(N)Oc2[nH]nc(-c3ccc4ccccc4c3)c2C1c1cc(O)ccc1O (centres undefined)
[24]
  Drug metabolism: Metabolite_Detected

## Cn1nc(-c2ccccc2)c2c1OC(N)=C(C#N)C2c1cc(F)cc(F)c1 (centres undefined)
[23]
  IC50: 6.6 µM

## COc1ccc(-c2nn(C)c3c2C(c2ccccc2)C(C#N)=C(N)O3)cc1 (centres undefined)
[23]
  IC50: > 10 µM

## COc1ccc(C2C(C#N)=C(N)Oc3c2c(C)nn3-c2ccccc2)cc1 (centres undefined)
[23]
  IC50: 4.1 µM

## CC(C)c1ccc(C2C(C#N)=C(N)Oc3c2c(-c2ccccc2)nn3C)cc1 (centres undefined)
[23]
  IC50: 5.4 µM

## Cc1nn(C)c2c1C(c1cc(F)cc(F)c1)C(C#N)=C(N)O2 (centres undefined)
[23]
  IC50: 4.2 µM

## COc1ccc(-c2nn(-c3ccccc3)c3c2C(c2ccc(F)cc2)C(C#N)=C(N)O3)cc1 (centres undefined)
[23]
  IC50: 6 µM

## COc1ccc(C2C(C#N)=C(N)Oc3c2c(-c2ccccc2)nn3C)cc1 (centres undefined)
[23]
  IC50: > 10 µM

## COc1ccc(-c2nn(C)c3c2C(c2ccc(F)cc2)C(C#N)=C(N)O3)cc1OC (centres undefined)
[23]
  IC50: > 10 µM
